The values that follow come from patent publication US20150353495A1 (PORTOLA PHARMACEUTICALS, INC., priority 2010, published 2015).

Bounds are passed on as bounds.

Holding throughout (type): biochemical
The target of one assay is T1, JAK1 (Homo sapiens, UniProt P23458).
T1 construct: 5 μl of catalytic domain recombinant Kinase enzyme+Tyr peptide substrate (Invitrogen, CA); purchased Invitrogen
Briefly: Z'-LYTE kinase assay JAK1. The procedure, abridged:
(§1)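 In duplicate wells, each test molecule (1% final DMSO) is incubated with recombinant kinase catalytic domain, Tyr6 peptide substrate and ATP for one hour at room temperature; a site-specific protease is then added for another hour before fluorescence reading.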

For a further assay, the target named is T2, JAK2 (Homo sapiens, UniProt O60674).
T2 construct: 5 μl of catalytic domain recombinant Kinase enzyme+Tyr peptide substrate (Invitrogen, CA); purchased Invitrogen
Briefly: Z'-LYTE kinase assay JAK2. The essentials:
as §1

The target of a further assay is T3, JAK3 (Homo sapiens, UniProt P52333).
T3 construct: 5 μl of catalytic domain recombinant Kinase enzyme+Tyr peptide substrate (Invitrogen, CA); purchased Invitrogen
Briefly: Z'-LYTE kinase assay JAK3. The essentials:
as §1

T3 sequence (P52333 822-1111 limits assumed): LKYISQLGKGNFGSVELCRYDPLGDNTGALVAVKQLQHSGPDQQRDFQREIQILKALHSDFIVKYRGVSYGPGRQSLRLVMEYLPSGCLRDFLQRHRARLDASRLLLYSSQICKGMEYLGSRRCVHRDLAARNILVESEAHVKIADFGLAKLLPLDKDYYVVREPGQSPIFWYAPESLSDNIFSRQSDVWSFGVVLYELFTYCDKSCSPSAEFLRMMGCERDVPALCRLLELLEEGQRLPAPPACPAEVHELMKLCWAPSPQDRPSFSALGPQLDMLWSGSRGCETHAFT
T1 sequence (P23458 875-1153 limits assumed): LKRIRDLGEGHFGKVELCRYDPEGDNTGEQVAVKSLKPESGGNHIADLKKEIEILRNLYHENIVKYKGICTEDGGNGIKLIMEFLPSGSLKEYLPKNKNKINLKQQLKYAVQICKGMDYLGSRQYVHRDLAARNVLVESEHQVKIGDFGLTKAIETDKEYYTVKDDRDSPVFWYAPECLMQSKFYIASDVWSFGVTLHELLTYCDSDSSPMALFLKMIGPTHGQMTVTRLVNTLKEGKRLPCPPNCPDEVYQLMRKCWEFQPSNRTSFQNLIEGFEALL
T2 sequence (O60674 849-1124 limits assumed): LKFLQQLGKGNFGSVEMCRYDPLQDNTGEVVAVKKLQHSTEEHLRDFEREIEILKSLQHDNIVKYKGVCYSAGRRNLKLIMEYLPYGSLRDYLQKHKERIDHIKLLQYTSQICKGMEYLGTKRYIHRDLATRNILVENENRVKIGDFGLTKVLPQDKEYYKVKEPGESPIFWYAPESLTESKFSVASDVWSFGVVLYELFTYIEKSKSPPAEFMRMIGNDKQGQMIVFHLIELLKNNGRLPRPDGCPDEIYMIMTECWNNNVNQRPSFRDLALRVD

For orientation: IC50 means the midpoint of a concentration-inhibition curve. Low readings indicate higher potency, high ones lower potency. Turning to `CN(C)C(=O)c1ccc(Nc2cc(NCc3ccccc3)c(C(N)=O)cn2)cc1C(F)(F)F` [Example 272, 4-(benzylamino)-6-(4-(dimethylcarbamoyl)-3-(trifluoromethyl)phenylamino)nicotinamide], the results for the IC50 against JAK1, on JAK2 and at JAK3 were over 1 µM, over 1 µM and 0.01 to 0.1 µM, respectively.

Turning to `CN(C)C(=O)c1ccc(Nc2cc(NCc3ccccc3)c(C(N)=O)cn2)cc1F` [Example 273, 4-(benzylamino)-6-(4-(dimethylcarbamoyl)-3-fluorophenylamino)nicotinamide], the results for the IC50 against JAK1, against JAK2 and against JAK3 were over 1 µM, 0.1 to 1 µM and 0.01 to 0.1 µM, respectively.

On to `CC(=O)N1CCC[C@H](CNc2cc(Nc3ccc(C(=O)N(C)C)c(C(F)(F)F)c3)ncc2C(N)=O)C1` [Example 274, (R)-4-((1-acetylpiperidin-3-yl)methylamino)-6-(4-(dimethylcarbamoyl)-3-(trifluoromethyl)phenylamino)nicotinamide], for which the IC50 at JAK1 was over 1 µM; against JAK2 it was over 1 µM; against JAK3, 0.1 to 1 µM.

`CC(=O)N1CCC[C@H](CNc2cc(Nc3ccc(C(=O)N(C)C)c(F)c3)ncc2C(N)=O)C1` [Example 275, (R)-4-((1-acetylpiperidin-3-yl)methylamino)-6-(4-(dimethylcarbamoyl)-3-fluorophenylamino)nicotinamide]: the IC50 at JAK1 is over 1 µM; against JAK2 it was over 1 µM; at JAK3, 0.1 to 1 µM.

With `NC(=O)c1cnc(Nc2ccc(-c3c[nH]cn3)cc2)cc1NCc1ccccc1` [Example 276, 6-(4-(1H-imidazol-4-yl)phenylamino)-4-(benzylamino)nicotinamide], the IC50 is 0.1 to 1 µM against JAK1, 0.1 to 1 µM on JAK2 and 0.01 to 0.1 µM at JAK3.

As to `NC(=O)c1cnc(Nc2ccc(-n3cccn3)cc2)cc1NCc1ccccc1` [Example 277, 6-(4-(1H-pyrazol-1-yl)phenylamino)-4-(benzylamino)nicotinamide], the half-inhibitory concentration (IC50) at JAK1 is over 1 µM; against JAK2 it was over 1 µM; against JAK3, 0.01 to 0.1 µM.

Consider `NC(=O)c1cnc(Nc2ccc(-n3cccn3)nc2)cc1NCc1ccccc1` [Example 278, 6-(6-(1H-pyrazol-1-yl)pyridin-3-ylamino)-4-(benzylamino)nicotinamide], for which the IC50 on JAK1 was over 1 µM; against JAK2, over 1 µM; against JAK3, 0.1 to 1 µM.

On to `COc1ccc(Nc2cc(NCc3ccccc3)c(C(N)=O)cn2)cc1C` [Example 279, 4-(benzylamino)-6-(4-methoxy-3-methylphenylamino)nicotinamide], for which the IC50 is over 1 µM against JAK1, over 1 µM against JAK2 and 0.01 to 0.1 µM at JAK3.

As for `COc1cc(Nc2cc(NCc3ccccc3)c(C(N)=O)cn2)cc(OC)c1OC` [Example 280, 4-(benzylamino)-6-(3,4,5-trimethoxyphenylamino)nicotinamide], the half-maximal inhibitory concentration (IC50) at JAK1 is over 1 µM; on JAK2, 0.1 to 1 µM; against JAK3 it was 0.01 to 0.1 µM.

For the molecule `NC(=O)c1cnc(Nc2ccc(-c3nc[nH]n3)cc2)cc1NCc1ccccc1` [Example 281, 6-(4-(1H-1,2,4-triazol-3-yl)phenylamino)-4-(benzylamino)nicotinamide], the values for the IC50 on JAK1, on JAK2 and at JAK3 were 0.1 to 1 µM, 0.1 to 1 µM and 0.01 to 0.1 µM, respectively.

Regarding `COc1ccc(Nc2cc(NCc3cccc4cc[nH]c34)c(C(N)=O)cn2)cc1` [Example 282, 4-((1H-indol-7-yl)methylamino)-6-(4-methoxyphenylamino)nicotinamide], the IC50 against JAK1 is over 1 µM; against JAK2, over 1 µM; against JAK3 it was 0.01 to 0.1 µM.

With `COc1ccc(Nc2cc(NCc3cncnc3)c(C(N)=O)cn2)cc1` [Example 286, 6-(4-methoxyphenylamino)-4-(pyrimidin-5-ylmethylamino)nicotinamide], the IC50 at JAK1 was over 1 µM; on JAK2, over 1 µM; against JAK3 it was 0.1 to 1 µM.

Turning to `Cc1cc(Nc2cc(NCc3cncnc3)c(C(N)=O)cn2)ccc1C(=O)N(C)C` [Example 287, 6-(4-(dimethylcarbamoyl)-3-methylphenylamino)-4-(pyrimidin-5-ylmethylamino)nicotinamide], the concentration for half-maximal inhibition (IC50) at JAK1 was over 1 µM; at JAK2, over 1 µM; on JAK3, 0.1 to 1 µM.

In the case of `CN(C)C(=O)c1ccc(Nc2cc(NCc3cccc4cc[nH]c34)c(C(N)=O)cn2)cc1` [Example 288, 4-((1H-indol-7-yl)methylamino)-6-(4-(dimethylcarbamoyl)phenylamino)nicotinamide], the values for the half-inhibitory concentration (IC50) against JAK1, against JAK2 and on JAK3 were over 1 µM, 0.01 to 0.1 µM and 0.001 to 0.01 µM, respectively.

Regarding `CCS(=O)(=O)N1CCC[C@H](CNc2cc(Nc3ccc(OC)cc3)ncc2C(N)=O)C1` [Example 289, (R)-4-((1-(ethylsulfonyl)piperidin-3-yl)methylamino)-6-(4-methoxyphenylamino)nicotinamide], the half-inhibitory concentration (IC50) at JAK1 is over 1 µM; at JAK2 it was 0.1 to 1 µM; against JAK3, 0.01 to 0.1 µM.

Turning to `COc1ccc(Nc2cc(NC[C@H]3CCCN(C(=O)N4CCCC4)C3)c(C(N)=O)cn2)cc1` [Example 290, (R)-6-(4-methoxyphenylamino)-4-((1-(pyrrolidine-1-carbonyl)piperidin-3-yl)methylamino)nicotinamide], the concentration for half-maximal inhibition (IC50) against JAK1 was over 1 µM; against JAK2, over 1 µM; against JAK3, 0.1 to 1 µM.

Take `COc1ccc(Nc2cc(NC[C@H]3CCCN(C(=O)N(C)C)C3)c(C(N)=O)cn2)cc1` [Example 291, (R)-4-((1-(dimethylcarbamoyl)piperidin-3-yl)methylamino)-6-(4-methoxyphenylamino)nicotinamide]: the IC50 was over 1 µM against JAK1, over 1 µM against JAK2 and 0.1 to 1 µM against JAK3.

Consider `COc1ccc(Nc2cc(NC[C@H]3CCCN(S(=O)(=O)C4CC4)C3)c(C(N)=O)cn2)cc1` [Example 292, (R)-4-((1-(cyclopropylsulfonyl)piperidin-3-yl)methylamino)-6-(4-methoxyphenylamino)nicotinamide], for which the 50% inhibitory concentration (IC50) was over 1 µM against JAK1, over 1 µM against JAK2 and 0.1 to 1 µM against JAK3.

As to `COc1ccc(Nc2cc(NCc3ccccc3)c(C(N)=O)cn2)cc1OC` [Example 293, 4-(benzylamino)-6-(3,4-dimethoxyphenylamino)nicotinamide], the IC50 lay in the range of 0.1 to 1 µM against JAK1, 0.1 to 1 µM on JAK2 and 0.01 to 0.1 µM at JAK3.

For `Cc1cc(Nc2cc(NCc3cccc4[nH]ccc34)c(C(N)=O)cn2)ccc1C(=O)N(C)C` [Example 295, 4-((1H-indol-4-yl)methylamino)-6-(4-(dimethylcarbamoyl)-3-methylphenylamino)nicotinamide], the IC50 was 0.001 to 0.01 µM at JAK1, 0.001 to 0.01 µM against JAK2 and under 0.001 µM at JAK3.

With `COc1ccc(Nc2cc(NCc3cncc(F)c3)c(C(N)=O)cn2)cc1` [Example 296, 4-((5-fluoropyridin-3-yl)methylamino)-6-(4-methoxyphenylamino)nicotinamide], the half-maximal inhibitory concentration (IC50) against JAK1 is 0.1 to 1 µM; against JAK2 it was 0.1 to 1 µM; against JAK3, 0.01 to 0.1 µM.

Turning to `COc1ccc(Nc2cc(NCc3ccncn3)c(C(N)=O)cn2)cc1` [Example 298, 6-(4-methoxyphenylamino)-4-(pyrimidin-4-ylmethylamino)nicotinamide], the IC50 was over 1 µM on JAK1, over 1 µM at JAK2 and 0.1 to 1 µM against JAK3.

Turning to `CN(C)C(=O)c1ccc(Nc2cc(NCc3ccncn3)c(C(N)=O)cn2)cc1` [Example 299, 6-(4-(dimethylcarbamoyl)phenylamino)-4-(pyrimidin-4-ylmethylamino)nicotinamide], the 50% inhibitory concentration (IC50) against JAK1, on JAK2 and against JAK3 was over 1 µM each time.

As for `COc1ccc(Nc2cc(NCc3ncccn3)c(C(N)=O)cn2)cc1` [Example 300, 6-(4-methoxyphenylamino)-4-(pyrimidin-2-ylmethylamino)nicotinamide], the values for the half-maximal inhibitory concentration (IC50) at JAK1, on JAK2 and against JAK3 were over 1 µM, over 1 µM and 0.1 to 1 µM, respectively.

Turning to `COc1ccc(Nc2cc(NCc3cccc(S(C)(=O)=O)c3)c(C(N)=O)cn2)cc1` [Example 301, 6-(4-methoxyphenylamino)-4-(3-(methylsulfonyl)benzylamino)nicotinamide], the IC50 against JAK1 is over 1 µM; against JAK2, over 1 µM; on JAK3 it was 0.01 to 0.1 µM.

Consider `CN(C)C(=O)c1ccc(Nc2cc(NCc3cccc(S(C)(=O)=O)c3)c(C(N)=O)cn2)cc1` [Example 302, 6-(4-(dimethylcarbamoyl)phenylamino)-4-(3-(methylsulfonyl)benzylamino)nicotinamide], for which the IC50 on JAK1 was over 1 µM; on JAK2 it was 0.1 to 1 µM; on JAK3, 0.01 to 0.1 µM.

Turning to `COc1ccc(Nc2cc(NCc3cccc4c3ccn4C)c(C(N)=O)cn2)cc1` [Example 303, 6-(4-methoxyphenylamino)-4-((1-methyl-1H-indol-4-yl)methylamino)nicotinamide], the IC50 against JAK1 is over 1 µM; against JAK2, over 1 µM; on JAK3 it was 0.01 to 0.1 µM.

With `CN(C)C(=O)c1ccc(Nc2cc(NCc3cccc4c3ccn4C)c(C(N)=O)cn2)cc1` [Example 304, 6-(4-(dimethylcarbamoyl)phenylamino)-4-((1-methyl-1H-indol-4-yl)methylamino)nicotinamide], the IC50 against JAK1 lay in the range of 0.1 to 1 µM; against JAK2, 0.1 to 1 µM; at JAK3, 0.001 to 0.01 µM.

Take `NC(=O)c1cnc(Nc2ccc(C(F)(F)F)cc2)cc1NCc1cncc(F)c1` [Example 305]: the IC50 is over 1 µM at JAK1, over 1 µM against JAK2 and 0.1 to 1 µM against JAK3.

Regarding `NC(=O)c1cnc(Nc2cccc(F)c2)cc1NCc1cncc(F)c1` [Example 306, 6-(3-fluorophenylamino)-4-((5-fluoropyridin-3-yl)methylamino)nicotinamide], the IC50 is 0.1 to 1 µM on JAK1, 0.1 to 1 µM against JAK2 and 0.01 to 0.1 µM against JAK3.
